Results as given in ChEMBL document CHEMBL5584309, “Discovery of Novel Mcl-1 Inhibitors with a 3-Substituted-1H-indole-1-yl Moiety Binding to the P1-P3 Pockets to Induce Apoptosis in Acute Myeloid Leukemia Cells” (J Med Chem, 2024).
One block for each molecule: values may come before it. Activity calls are given as the source filed them. The calls are words filed in the database; no cut-off is given here.

Experiments:
[1] = biological target: T1, Apoptosis regulator Bcl-2 (Homo sapiens, UniProt P10415); experiment: Binding affinity to Bcl-2 (unknown origin) pre-incubated for 30 mins followed by addition FAM-peptide further incubated for 20 mins by fluorescence polarization-based binding assay
T1 sequence (P10415 whole entry): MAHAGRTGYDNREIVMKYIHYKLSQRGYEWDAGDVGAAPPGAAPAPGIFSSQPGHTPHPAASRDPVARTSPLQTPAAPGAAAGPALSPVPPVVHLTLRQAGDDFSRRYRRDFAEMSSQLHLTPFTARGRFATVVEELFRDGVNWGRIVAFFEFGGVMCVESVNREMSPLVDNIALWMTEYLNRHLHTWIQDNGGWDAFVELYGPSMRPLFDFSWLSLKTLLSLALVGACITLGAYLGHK

Bcl-2-related protein A1 = biological target: T2, Bcl-2-related protein A1 (Homo sapiens, UniProt Q16548); experiment: Binding affinity to Bfl-1 (unknown origin) pre-incubated for 30 mins followed by addition FAM-peptide further incubated for 20 mins by fluorescence polarization-based binding assay
T2 sequence (Q16548 whole entry): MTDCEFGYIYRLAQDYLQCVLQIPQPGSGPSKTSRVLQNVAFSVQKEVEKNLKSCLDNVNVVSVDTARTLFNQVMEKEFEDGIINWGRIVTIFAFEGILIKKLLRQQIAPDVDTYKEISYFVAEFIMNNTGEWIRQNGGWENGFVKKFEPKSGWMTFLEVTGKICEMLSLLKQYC

THP-1 [2] = experiment: Induction of apoptosis in human THP-1 cells assessed as cleaved PARP at 10 to 20 uM measured after 24 hrs by Western blot analysis; assay type: functional, cell-based; details: dose 10-20 µM
HL-60 [3] = experiment: Induction of apoptosis in human HL-60 cells assessed as viable cells at 2.5 uM measured after 24 hrs by Annexin V-FITC/propidium iodide double staining based assay (reference value: 92.68%); assay type: functional; details: read-out: Activity
HL-60 [4] = experiment: Induction of apoptosis in human HL-60 cells assessed as late apoptotic cells at 5 uM measured after 24 hrs by Annexin V-FITC/propidium iodide double staining based assay (reference value: 3.78%); assay type: functional
HL-60 [5] = experiment: Induction of apoptosis in human HL-60 cells assessed as viable cells at 10 uM measured after 24 hrs by Annexin V-FITC/propidium iodide double staining based assay (reference value: 92.68%); assay type: functional; details: read-out: Activity
THP-1 [6] = experiment: Induction of apoptosis in human THP-1 cells assessed as necrotic cells at 20 uM measured after 24 hrs by Annexin V-FITC/propidium iodide double staining based assay (reference value: 0.13%); assay type: functional
[7] = Metabolic stability in rat plasma assessed as compound remaining measured after 10 mins by LC-MS/MS analysis; assay type: ADME, cell-free; details: read-out: Stability
[8] = Metabolic stability in rat plasma assessed as compound remaining measured after 30 mins by LC-MS/MS analysis; assay type: ADME, cell-free; details: read-out: Stability
[9] = Metabolic stability in rat liver microsomes assessed as compound remaining measured after 30 mins by LC-MS/MS analysis; assay type: ADME, Microsome; details: read-out: Stability
[10] = Metabolic stability in rat liver microsomes assessed as compound remaining measured after 45 mins by LC-MS/MS analysis; assay type: ADME, Microsome; details: read-out: Stability
THP-1 [11] = experiment: In vivo antitumor activity against human THP-1 cells xenografted in female NOD SCID mouse assessed as tumor growth inhibition at 80 mg/kg, ip once daily after 10 days of tumor inoculation treated for 14 days relative to control; assay type: functional; details: THP-1, 336 h, time 14 day, read-out: TGI
HL-60 [12] = experiment: Induction of apoptosis in human HL-60 cells assessed as increase in Noxa measured after 24 hrs by Western blot analysis; assay type: functional, cell-based; details: dose 10-20 µM
THP-1 [13] = experiment: Induction of apoptosis in human THP-1 cells assessed as increase in Noxa measured after 24 hrs by Western blot analysis; assay type: functional, cell-based; details: dose 10-20 µM
[14] = biological target: T1, Apoptosis regulator Bcl-2; experiment: Binding affinity to Bcl-2 in human THP-1 cells assessed as dissociation of Bim from Bcl-2 at 20 uM measured after 24 hrs by Co-immunoprecipitation (Co-IP) assay; assay type: cell-based
[15] = AUC (0 to t) in Sprague-Dawley rat at 5 mg/kg, iv measured upto 24 hrs by LC-MS/MS analysis; assay type: ADME, organism-based; details: in vivo
[16] = MRT (0 to t) in Sprague-Dawley rat at 5 mg/kg, iv measured upto 24 hrs by LC-MS/MS analysis; assay type: ADME, organism-based; details: in vivo
[17] = MRT (0 to infinity) in Sprague-Dawley rat at 5 mg/kg, iv measured upto 24 hrs by LC-MS/MS analysis; assay type: ADME, organism-based; details: in vivo
[18] = Tmax in Sprague-Dawley rat at 20 mg/kg, ip measured upto 24 hrs by LC-MS/MS analysis; assay type: ADME, organism-based; details: in vivo
[19] = AUC (0 to t) in Sprague-Dawley rat at 20 mg/kg, ip measured upto 24 hrs by LC-MS/MS analysis; assay type: ADME, organism-based; details: in vivo
[20] = MRT (0 to infinity) in Sprague-Dawley rat at 20 mg/kg, ip measured upto 24 hrs by LC-MS/MS analysis; assay type: ADME, organism-based; details: in vivo
[21] = Bioavailability in Sprague-Dawley rat at 20 mg/kg, ip measured upto 24 hrs by LC-MS/MS analysis; assay type: ADME, organism-based; details: in vivo
[22] = Toxicity in NOD SCID mouse assessed as change in liver tissue at 25 mg/kg, ip administered for 7 consecutive days by Hematoxylin-eosin (HE) staining based assay; assay type: organism-based; details: in vivo, 168 h, time 7 day
[23] = Toxicity in NOD SCID mouse assessed as change in spleen tissue at 25 mg/kg, ip administered for 7 consecutive days by Hematoxylin-eosin (HE) staining based assay; assay type: organism-based; details: in vivo, 168 h, time 7 day
[24] = Toxicity in NOD SCID mouse assessed as change in lung tissue at 25 mg/kg, ip administered for 7 consecutive days by Hematoxylin-eosin (HE) staining based assay; assay type: organism-based; details: in vivo, 168 h, time 7 day
HL-60 [25] = experiment: In vivo antitumor activity against human HL-60 cells xenografted in female NOD SCID mouse assessed as tumor growth inhibition at 80 mg/kg, ip once daily after 15 days of tumor inoculation treated for 12 days relative to control; assay type: functional; details: HL-60, 288 h, time 12 day, read-out: TGI
[26] = Toxicity in NOD SCID mouse xenografted with human HL-60 cells assessed as change in spleen tissue at 80 mg/kg, ip once daily after 15 days of tumor inoculation treated for 12 days; assay type: organism-based; details: in vivo, 288 h, time 12 day
[27] = Toxicity in NOD SCID mouse xenografted with human HL-60 cells assessed as change in lung tissue at 80 mg/kg, ip once daily after 15 days of tumor inoculation treated for 12 days; assay type: organism-based; details: in vivo, 288 h, time 12 day
THP-1 [28] = experiment: In vivo antitumor activity against human THP-1 cells xenografted in female NOD SCID mouse assessed as tumor growth inhibition at 40 mg/kg, ip once daily after 10 days of tumor inoculation treated for 14 days relative to control; assay type: functional; details: THP-1, 336 h, time 14 day, read-out: TGI
[29] = Toxicity in NOD SCID mouse xenografted with human THP-1 cells assessed as change in heart tissue at 40 to 80 mg/kg, ip once daily after 10 days of tumor inoculation treated for 14 days relative to control; assay type: organism-based; details: in vivo, 336 h, dose 40-80 mg/kg, time 14 day
[30] = Toxicity in NOD SCID mouse xenografted with human THP-1 cells assessed as change in lung tissue at 40 to 80 mg/kg, ip once daily after 10 days of tumor inoculation treated for 14 days relative to control; assay type: organism-based; details: in vivo, 336 h, dose 40-80 mg/kg, time 14 day
[31] = Toxicity in NOD SCID mouse xenografted with human THP-1 cells assessed as change in liver tissue at 40 to 80 mg/kg, ip once daily after 10 days of tumor inoculation treated for 14 days relative to control; assay type: organism-based; details: in vivo, 336 h, dose 40-80 mg/kg, time 14 day
[32] = Toxicity in NOD SCID mouse xenografted with human THP-1 cells assessed as change in body weight at 40 to 80 mg/kg, ip once daily after 10 days of tumor inoculation treated for 14 days relative to control; assay type: organism-based; details: in vivo, 336 h, dose 40-80 mg/kg, time 14 day

IC50 [1]: > 100 µM | IC50 (Bcl-2-related protein A1): > 10 µM | remaining at 10 min [7]: 93.3% | remaining at 0.5 h [8]: 104% | remaining at 0.5 h [9]: 51.8% | remaining at 0.75 h [10]: 43.7%
Structure (SMILES): Cc1nn(C)c(COc2ccc(N3CCN(S(=O)(=O)N(C)C)CC3)cc2)c1-c1cccc2c(CCCOc3cccc4ccccc34)c(C(=O)O)n(CCN3CCOCC3)c12
Activity (THP-1 [2]): Active | viability at 2.5 µM (HL-60 [3]): 96.2% | Activity (HL-60 [4]): 4.82% | viability at 10 µM (HL-60 [5]): 33% | Activity (THP-1 [6]): 0.62% | inhibition in vivo at 80 mg/kg (THP-1 [11]): 58.7%

IC50 [1]: > 100 µM | IC50 (Bcl-2-related protein A1): > 10 µM | Activity [14]: inactive | remaining at 10 min [7]: 101% | remaining at 0.5 h [8]: 87.7% | remaining at 0.5 h [9]: 53% | remaining at 0.75 h [10]: 46% | AUC(0-t) at 24 h [15]: 18700 ng·h/mL | MRT last at 24 h [16]: 1.14 h | MRT inf [17]: 1.3 h | Tmax [18]: 5.33 h | AUC(0-t) at 24 h [19]: 54600 ng·h/mL | MRT inf [20]: 7.03 h | bioavailability [21]: 74%
Structure (SMILES): Cc1cc(OCCCc2c(C(=O)O)n(CCN3CCOCC3)c3c(-c4ccccc4Cn4cc(CCN(CCN5CCOCC5)S(=O)(=O)c5ccc(F)cc5)c5ccccc54)cccc23)cc(C)c1Cl
Activity (THP-1 [2]): Active | Activity (HL-60 [12]): Dose-Dependent Effect | Activity (THP-1 [13]): Dose-Dependent Effect | viability at 2.5 µM (HL-60 [3]): 92.8% | Activity (HL-60 [4]): 13.47% | viability at 10 µM (HL-60 [5]): 41.2% | Activity (THP-1 [6]): 0.52% | Activity [22]: Non-Toxic | Activity [23]: Non-Toxic | Activity [24]: Non-Toxic | inhibition in vivo at 80 mg/kg (HL-60 [25]): 63.7% | Activity [26]: Non-Toxic | Activity [27]: Non-Toxic | inhibition in vivo at 40 mg/kg (THP-1 [28]): 40.2% | inhibition in vivo at 80 mg/kg (THP-1 [11]): 57.4% | Activity [29]: Non-Toxic | Activity [30]: Non-Toxic | Activity [31]: Non-Toxic | Activity [32]: Non-Toxic
